One compound from EP3178809A1, “HYBRID MOLECULE WITH STRUCTURAL AND ACTIVITY ELEMENTS OF RESVERATROL AND DIALLYL SULFIDE” (Albert-Ludwigs-Universität Freiburg, priority 2015, dated 2017) can be followed below.

Assay [1] concerns the target T1, NOX1 von Magenkarzinomzellen (Homo sapiens, UniProt Q9Y5S8).
T1 construct: endogenous in cells; host or cells: MKN-45
T1 sequence (Q9Y5S8 1-564): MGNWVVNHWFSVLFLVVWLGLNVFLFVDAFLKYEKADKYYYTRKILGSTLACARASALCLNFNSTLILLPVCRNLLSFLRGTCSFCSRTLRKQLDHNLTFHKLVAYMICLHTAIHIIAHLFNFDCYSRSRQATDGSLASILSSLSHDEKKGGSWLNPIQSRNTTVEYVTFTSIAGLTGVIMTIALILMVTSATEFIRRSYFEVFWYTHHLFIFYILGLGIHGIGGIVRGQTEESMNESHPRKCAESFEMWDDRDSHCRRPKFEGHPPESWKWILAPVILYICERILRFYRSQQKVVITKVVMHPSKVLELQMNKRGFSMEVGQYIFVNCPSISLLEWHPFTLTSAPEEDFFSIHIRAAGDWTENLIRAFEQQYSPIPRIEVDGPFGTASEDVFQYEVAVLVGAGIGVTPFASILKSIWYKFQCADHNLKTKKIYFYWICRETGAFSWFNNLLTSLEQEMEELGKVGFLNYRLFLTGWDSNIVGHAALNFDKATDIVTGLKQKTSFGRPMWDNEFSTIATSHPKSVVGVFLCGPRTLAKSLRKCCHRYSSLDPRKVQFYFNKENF
T1 sequence (P13498 1-195 partner): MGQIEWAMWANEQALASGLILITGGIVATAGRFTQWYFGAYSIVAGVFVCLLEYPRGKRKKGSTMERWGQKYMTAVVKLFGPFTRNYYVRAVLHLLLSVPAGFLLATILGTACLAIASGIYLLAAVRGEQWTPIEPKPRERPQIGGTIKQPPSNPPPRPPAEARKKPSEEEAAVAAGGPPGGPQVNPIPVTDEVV
Put plainly: Stimulation of superoxide anion production (shift of Cu/ZnSOD inhibition curve of 3-AT-reactivated apoptosis signalling). The assay is classed as cell-based. Particulars: 0.9 µM, MKN-45, 100 mM 3-AT plus Cu/ZnSOD, 5,5 Stunden. How it is done: MKN-45-Zellen unter Standardbedingungen erhielten zunächst keinen Zusatz (Kontrolle) oder 0.9 µM Resveratrol oder der Resveratrolderivate HT 161, HT 163, HT 182, die durch unterschiedliche Blockierung der drei vorhandenen OH-Gruppen gekennzeichnet sind. Dabei waren beim Derivat HT 161 alle drei OH-Gruppen durch TBS (tert-Butyldimethylsilyl) blockiert, beim Derivat HT 163 die beiden OH-Gruppen in den Positionen 3'und 5'blockiert und beim Derivat HT 182 selektiv nur die OH-Gruppe in der Position 4'blockiert.
Danach erfolgte die Zugabe von 100 mM 3-AT (Katalasehemmstoff) und der angegebenen Konzentrationen von Cu/ZnSOD. Nach 5,5 Stunden erfolgte die Bestimmung der Prozentsätze apoptotischer Zellen in Doppelansätzen.
Da 3-AT Superoxidanionen-abhängiges interzelluläres Apoptose-auslösendes Signaling reaktiviert, wird der Prozess durch Cu/Zn-SOD blockiert, wobei sich eine typische Glockenkurve ausbildet. Der biochemische Grund dafür wird in Bauer et al., Carcinogenesis 35: 1582-1591, 2014 dargestellt.
Die Messung der extrazellulären Superoxidanionenkonzentration von Tumorzellen sowie die Bestrahlungstechnik mit Niedrigdosis-Gammastrahlung wird in der Arbeit Temme and Bauer, 2013 beschrieben. Die Hemmung der NOD wird bei Scheit and Bauer, 2015, beschrieben. Viele Versuchsergebnisse wurden in den Figuren dargestellt. […]

Assay [2] concerns humane Magenkarzinomzellen MKN-45. Put plainly: Apoptosis induction in tumour cells (morphological criteria, duplicate assays). The class given is cell-based, human. Particulars: MKN-45, apoptosis. Here is the method: Nach 3 Stunden bei 37 ° C, 5 % CO2 wurden die Prozentsätze apoptotischer Zellen bestimmt. […] Nach 3 Stunden bei 37 ° C, 5 % CO2 wurden die Prozentsätze apoptotischer Zellen bestimmt.
Die Daten basieren allesamt auf der quantitativen Bestimmung der Apoptose mittels der klassischen morphologischen Kriterien Kernkondensation, Kernfragmentation und Membrane Blebbing nach definierten Inkubationszeiten bei 37°C.
Die Ansätze erfolgten bei einer Zelldichte von 125 000 Zellen/ml in 96-Loch-Platten mit einem Reaktionsvolumen von 100 µl. Alle Ansätze wurden als Doppelansätze geführt und pro Messpunkt wurden mindestens 200 Zellen morphologisch bewertet. Eine detaillierte Aufstellung der verwendeten Medien, Inhibitoren, Zellen ist in den Arbeiten Scheit and Bauer, 2015; Bauer und Zarkovic, 2014; Bauer et al., 2014; Bauer, 2015 beschrieben.
Um zu klären, ob das Hybridmolekül aus Struktur- und Wirkungselementen von Resveratrol und Diallyldisulfid in der Lage ist, Apoptose in Tumorzellen zu induzieren, und dabei zu prüfen, ob sich durch die Kombination der Einzelfunktionen in einem Molekül der Synergieeffekt bündeln ließ, wurden steigende Konzentrationen des Hybridmoleküls zu Magenkarzinomzellen der Linie MKN-45 gegeben. Die als Parallelansätze geführten Ansätze wurden sowohl ohne als auch in Anwesenheit von 2 mM des Singulettsauerstofffängers Histidin inkubiert, um zu prüfen, ob der durch das Hybridmolekül ausgelöste Effekt durch Singulettsauerstoff vermittelt wird. Zum Vergleich wurde das gleiche Experiment mit steigenden Konzentrationen DADS durchgeführt, ebenfalls mit und ohne Histidinzugabe. Nach 3,5 Stunden Inkubation wurde der Prozentsatz apoptotischer Zellen bestimmt.

“Also recorded” adds a separate entry of the source.

As to `Oc1ccc(C=Cc2cc(O)cc(O)c2)cc1` [Resveratrol], the “stimulierende Wirkung auf die Superoxidanionensynthese” value in assay [1] is “Rechtsverschiebung der Kurve”. Further, the “Synergieeffekt mit Taxol” value in assay [2] is on record as “Synergieeffekt”. The “Synergieeffekt mit DADS” value in assay [2] (3,5 Stunden (Figur 10) or 5,5 Stunden (Figur 15)) is on record as “konzentrationsabhängigen beachtlichen Synergieeffekt; also recorded: zur Ausprägung eines Synergieeffektes mit DADS befähigt”.
